Experimental data: patent publication US20120108855A1, “INCREASED EXPRESSION OF TRANSHYDROGENASE GENES AND THEIR USE IN ETHANOL PRODUCTION” (UNIVERSITY OF FLORIDA RESEARCH FOUNDATION, INC., priority 2009, published 2012)
Where two headings read alike, the source gives them in different places.

Experiments:
[1] = test system: E. coli LY180; format: cell-based, Escherichia coli; settings: for relief of furfural inhibition of growth by alternative sulfur source / furfural resistance (growth of LY180) with individual amino acid: AM1 medium; for furfural resistance (growth of LY180) with individual amino acid: amino acid 0.1 mM, 50 g liter^-1 xylose, 37 C, 48 hours
Procedure: Furfural tolerance was examined by measuring growth in standing tubes with 4 mL total volume of AM1 and 50 g liter^−1 filter-sterilized xylose as described previously (48). Tubes were incubated at 37° C. and measured after 24 hours and 48 hours. Values reported are an average of 4 measurements.
All 20 amino acids were individually tested for their ability to improve the growth of LY180 in AM1 mineral salts medium (FIG. 9A). A concentration of 0.1 mM was selected roughly based on the cellular content of individual amino acids (50).
During growth in AM1 medium containing 1 g liter^−1 furfural, the effects of alternative sulfur sources (L-cysteine, D-cysteine, taurine, and sodium thiosulfate) that enter metabolism at different levels of reduction (FIG. 9D) was compared. Note that 4 NADPH molecules and two reductase enzymes (CysH and CysIJ) are required to fully reduce sulfate prior to assimilation into cysteine. […] D-cysteine cannot be incorporated directly and is first catabolized to H2S (49). Thiosulfate also serves as a source of reduced sulfur for incorporation by CysM (47). Taurine is catabolized to sulfite in the cytoplasm and must be reduced by sulfite reductase (CysIJ and 3 NADPH molecules) prior to assimilation into cysteine (54).

[2] = test system: E. coli LY180; test: Microarray analysis of LY180 after furfural addition; format: cell-based, Escherichia coli
Procedure: Cultures were grown in small fermenters to a density of 670 mg dcw liter^−1. An initial sample was removed that served as a control. Furfural was immediately added from a 50 g liter^−1 aqueous stock (0.5 g liter^−1 final concentration) and incubation continued for 15 minutes prior to a second sampling. Samples were rapidly cooled in an ethanol-dry ice bath, harvested by centrifugation at 4° C., resuspended in Qiagen RNA Later and stored at −80° C. RNA was extracted using a Qiagen RNeasy Mini Kit, treated with DNase I and purified by phenol/chloroform extraction and ethanol precipitation. RNA was sent to NimbleGen (Madison, Wis.) for microarray comparisons using probes designed for E. coli K12. Each sample consisted of pooled material from four fermenters. The complete experiment was performed twice and the data was averaged (8 fermentors). Data was analyzed using ArrayStar (DNA Star, Madison, Wis.) and SimPheny software (Genomatica Inc., San Diego, Calif.). Expression ratios are presented as the average of the two pooled datasets.
Message levels were compared in actively growing cells before and 15 min after the addition of 0.5 g liter^−1 furfural. A water control was also included for comparison. […]

[3] = Stability of furfural in mineral salts medium; format: physicochemical; settings: 48 incubation at 37 C
Procedure: Protective concentrations of cysteine (0.05 mM) were 200-fold lower than that of 1 g liter^−1 furfural (10 mM).

[4] = test system: LY180 strains; test: Growth of LY180 strains carrying plasmids in the presence of furfural; format: cell-based, Escherichia coli; settings: 0.10% furfural, after 48 hours
Procedure: LY 180 strains were grown on LB glucose ampicillin plates overnight and each were used to inoculate a tube of AM1 xylose to 3-4 OD. This culture was immediately used to inoculate […] capped tubes containing 4 mL AM1 5% xylose, ampicillin, and an indicated concentration of furfural to 0.05 initial OD. Cultures were grown in a water bath at 37 C and OD 500 nm readings were taken after 24 and 48 hours.
PntAB is a proton translocating transhydrogenase that is not known to function during fermentative growth but is potentially capable of increasing the pool of NADPH (52). In examples 2 and 3, the E. coli […] transhydrogenase PntAB was cloned into pTrc99a and confirmed by sequencing. PntAB with native ribosomal binding site and rho dependent terminator was polymerase chain reaction (PCR) amplified from E. coli strain LY180 genomic DNA using primers with HindIII digestible ends. The PCR product and pTrc099a were HindIII digested, purified using a Qiagen Qiaprep Spin Miniprep Kit, and ligated together using T4 Quick DNA ligase. After transforming the resulting vector into TOP10F′, the plasmid was extracted and used to transform LY180. Orientation was verified by PCR analysis. The empty vector served as a control. Inducer was added prior to inoculation. The growth of LY180 strains carrying plasmids having increasing expression of pntA and pntB genes was compared (FIG. 2A-2B). […]

[5] = molecular target: sulfite reductase (CysIJ) (Escherichia coli, UniProt P38038); settings: read-out: Km for NADPH; cited from earlier work
sulfite reductase (CysIJ), sequence (P38038 2-599): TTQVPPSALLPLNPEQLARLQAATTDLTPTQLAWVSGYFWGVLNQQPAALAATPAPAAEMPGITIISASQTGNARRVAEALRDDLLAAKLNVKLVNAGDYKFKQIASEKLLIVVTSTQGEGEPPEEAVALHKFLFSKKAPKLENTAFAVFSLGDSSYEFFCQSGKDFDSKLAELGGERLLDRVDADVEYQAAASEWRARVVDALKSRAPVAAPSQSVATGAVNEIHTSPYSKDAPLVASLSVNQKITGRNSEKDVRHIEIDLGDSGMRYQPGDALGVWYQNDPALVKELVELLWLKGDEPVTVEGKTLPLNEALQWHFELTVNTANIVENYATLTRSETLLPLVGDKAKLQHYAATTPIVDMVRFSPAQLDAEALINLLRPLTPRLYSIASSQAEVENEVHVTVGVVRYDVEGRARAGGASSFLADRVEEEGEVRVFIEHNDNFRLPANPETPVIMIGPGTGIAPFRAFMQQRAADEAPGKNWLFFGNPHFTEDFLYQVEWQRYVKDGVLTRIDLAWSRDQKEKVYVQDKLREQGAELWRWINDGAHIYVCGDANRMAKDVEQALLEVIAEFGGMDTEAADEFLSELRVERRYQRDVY
sulfite reductase (CysIJ), sequence (P17846 2-570, further chain): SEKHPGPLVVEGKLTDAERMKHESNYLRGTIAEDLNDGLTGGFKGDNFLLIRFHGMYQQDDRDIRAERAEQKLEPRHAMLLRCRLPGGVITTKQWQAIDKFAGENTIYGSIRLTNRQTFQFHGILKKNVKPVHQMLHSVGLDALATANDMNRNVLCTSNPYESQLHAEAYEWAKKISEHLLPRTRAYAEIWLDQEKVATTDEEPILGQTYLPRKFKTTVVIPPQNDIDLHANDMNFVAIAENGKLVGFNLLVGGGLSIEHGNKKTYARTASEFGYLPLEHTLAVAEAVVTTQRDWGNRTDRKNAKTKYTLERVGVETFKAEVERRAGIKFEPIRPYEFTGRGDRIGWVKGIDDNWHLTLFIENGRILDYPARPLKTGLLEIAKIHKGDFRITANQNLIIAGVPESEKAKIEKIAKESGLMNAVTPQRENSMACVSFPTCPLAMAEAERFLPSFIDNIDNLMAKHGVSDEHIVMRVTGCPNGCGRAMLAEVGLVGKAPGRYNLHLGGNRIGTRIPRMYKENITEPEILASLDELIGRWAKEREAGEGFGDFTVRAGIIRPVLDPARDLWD

[6] = molecular target: YqhD (Escherichia coli, UniProt Q46856); settings: cited from earlier work
YqhD, sequence (Q46856 whole entry): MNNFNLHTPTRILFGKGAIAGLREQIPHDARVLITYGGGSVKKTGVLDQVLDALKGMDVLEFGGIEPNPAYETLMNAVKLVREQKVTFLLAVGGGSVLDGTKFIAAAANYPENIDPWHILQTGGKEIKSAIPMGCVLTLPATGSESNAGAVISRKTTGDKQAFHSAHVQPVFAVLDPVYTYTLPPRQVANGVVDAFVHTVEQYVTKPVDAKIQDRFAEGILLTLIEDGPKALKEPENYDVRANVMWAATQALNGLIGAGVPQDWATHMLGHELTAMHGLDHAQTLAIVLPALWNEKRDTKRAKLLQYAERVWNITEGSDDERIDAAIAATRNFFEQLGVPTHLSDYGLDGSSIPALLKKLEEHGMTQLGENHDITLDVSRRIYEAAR

[7] = molecular target: DkgA (Escherichia coli, UniProt Q46857); settings: read-out: apparent Km for NADPH; cited from earlier work
DkgA, sequence (Q46857 whole entry): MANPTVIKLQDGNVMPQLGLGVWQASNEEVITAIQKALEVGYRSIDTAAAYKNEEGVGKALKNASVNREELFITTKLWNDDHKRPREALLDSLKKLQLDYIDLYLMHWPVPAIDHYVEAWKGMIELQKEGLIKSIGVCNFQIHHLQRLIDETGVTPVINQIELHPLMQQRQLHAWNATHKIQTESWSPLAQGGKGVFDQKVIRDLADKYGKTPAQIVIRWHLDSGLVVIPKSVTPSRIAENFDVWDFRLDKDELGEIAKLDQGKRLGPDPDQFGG

[8] = test system: LY180; test: 5-HMF tolerance in tube cultures, LY180, with cysteine supplements; format: cell-based, Escherichia coli
Procedure: FIG. 17. Effect of L-cysteine on 5-HMF tolerance of LY180. Experiments were performed in tube cultures with AM1 medium containing 50 g l^−1 xylose and 5-HMF (24 h incubation). Cultures were supplemented with filter-sterilized L-cysteine as indicated. All data are plotted as a mean with standard deviation (n=4). A. 1.0 g l^−1 5-HMF; B. 2.0 g 1^−1 5-HMF.
Tolerance to HMF was tested using 13×100 mm closed tubes containing 4 ml AM1 and 5-HMF as indicated. When appropriate, antibiotics were included for plasmid maintenance. Tubes were inoculated to an initial density of 0.05 OD550nm. Growth was measured after incubation (60 rpm) for 48 h using a Spectronic 20D+ spectrophotometer (Thermo, Waltham, Mass.). To examine the effects of pntAB on furan tolerance, a multiwall plate containing 400 μl of AM1 (and 5-HMF or furfural) per well was inoculated as above. OD(420-580nm bandwidth) was measured for 72 h using a Bioscreen C growth analyzer (Oy Growth Curves, Helsinki, Finland).

[9] = test system: E. coli LY180; format: cell-based, Escherichia coli; settings: amino acid 0.5 mM, 1 g liter^-1 furfural, AM1 medium, 48 hours
[10] = test system: EMFR9; test: pH-controlled xylose fermentation with 5-HMF, EMFR9; format: cell-based, Escherichia coli
Procedure: (§1) Strains and plasmids used in this study have been previously described (70 and 23). These include LY180 (an ethanologenic derivative of E. coli), EMFR9 (furfural-tolerant derivative of LY180), LY180ΔyqhD, LY180ΔdkgA, LY180ΔyqhD ΔdkgA, pLOI4301 containing yqhD. Plasmids pLOI4303 containing dkgA (48), and pLOI4316 containing pntAB (70) were also used. Cultures were grown at 37° C. in AM1 minimal media (23) containing 20 g 1^−1 xylose (solid medium), 50 g l^−1 xylose (Bioscreen C growth analyzer and tube cultures), or 100 g 1^−1 (pH-controlled fermentations).
(§2) For fermentation experiments, seed cultures of LY180 and EMFR9 were grown overnight in small fermentors (37° C., 200 rpm) containing 350 ml of AM1 medium. Broth was maintained at pH 6.5 by the automatic addition of 2 N KOH. Upon reaching mid-log phase, experimental fermenters were inoculated to an initial cell density of 0.1 OD550nm. (33 mg dry cell weight 1^−1). Cell mass (OD550nm) and furan levels were monitored at 12-h intervals as described previously (20).

[11] = test system: LY180; test: pH-controlled xylose fermentation with 5-HMF, LY180; format: cell-based, Escherichia coli; settings: 1.0 g l^-1 5-HMF, 100 g l^-1 xylose
Procedure: as §1, §2

O=S(O)(O)=S [thiosulfate, sodium thiosulfate]
relief of furfural inhibition of growth by alternative sulfur source ([1]; 1 g liter^-1 furfural): effective

N[C@@H](Cc1c[nH]cn1)C(=O)O [histidine]
furfural resistance (growth of LY180) with individual amino acid ([1]; 1 g liter^-1 furfural): improved furfural resistance

N=C(N)NCCC[C@H](N)C(=O)O [arginine]
furfural resistance (growth of LY180) with individual amino acid ([1]; 1 g liter^-1 furfural): improved furfural resistance

OCC(O)CO [glycerol]
effect on furfural tolerance ([1]; glycerol 1.0 to 20 g liter^-1, data not included): no effect

N[C@H](CS)C(=O)O [D-cysteine]
relief of furfural inhibition of growth by alternative sulfur source ([1]; 1 g liter^-1 furfural): effective

O=Cc1ccco1 [furfural]
genes with expression altered two-fold or greater ([2]; 0.5 g liter^-1 furfural, 15 min): approximately 400 genes | up-regulation of YqhD and DkgA (mRNA) ([2]; addition of furfural, parent LY180): over 5 fold | furfural in mineral salts medium, by characteristic spectrum [3]: remained unchanged | growth of LY180 strains other than pTrc99a-pntAB forward [4]: substantially stopped growing

NC(=O)C1=CN([C@@H]2O[C@H](COP(=O)(O)OP(=O)(O)OC[C@H]3O[C@@H](n4cnc5c(N)ncnc54)[C@H](OP(=O)(O)O)[C@@H]3O)[C@@H](O)[C@H]2O)C=CC1 [NADPH]
Km [5]: 80 µM | Km ([6]; read-out: Km for NADPH): 8 µM | Km ([6]; read-out: apparent Km for NADPH): 8 µM | Km [7]: 23 µM

NCCS(=O)(=O)O [taurine]
relief of furfural inhibition of growth by alternative sulfur source ([1]; 1 g liter^-1 furfural): not effective

N[C@@H](CO)C(=O)O [serine]
furfural resistance (growth of LY180) with individual amino acid ([1]; 1 g liter^-1 furfural): improved furfural resistance

N[C@@H](CS)C(=O)O [cysteine, L-cysteine]
protective concentration against furfural ([1]; 1 g liter^-1 furfural (10 mM)): 0.05 mM | relief of furfural inhibition of growth by alternative sulfur source ([1]; 1 g liter^-1 furfural): effective | furfural resistance (growth of LY180) with individual amino acid ([1]; 1 g liter^-1 furfural): improved furfural resistance | improvement in furfural resistance ([1]; cysteine 0.01 mM): No measurable improvement | density to which LY180 grew ([1]; cysteine 0.05 mM, 1 g liter^-1 furfural): 0.8 g/L | growth of LY180 with cysteine supplement ([8]; 100 uM cysteine, 1 g l^-1 5-HMF): completely restored | growth of LY180 with cysteine supplement ([8]; 100 uM or 1000 uM cysteine, 2.5 g l^-1 5-HMF): not restored | effect of cysteine supplements on the MIC for 5-HMF ([8]; LY180): did not increase | furfural resistance (growth of LY180) with individual amino acid [9]: most effective

CSCC[C@H](N)C(=O)O [methionine]
furfural resistance (growth of LY180) with individual amino acid ([1]; 1 g liter^-1 furfural): improved furfural resistance

O=Cc1ccc(CO)o1 [5-HMF, 5-hydroxymethyl furfural]
growth of LY180 ([8]; 1 g l^-1 5-HMF, tube cultures, 24 h): partially inhibited | effect on cell yield or ethanol yield of EMFR9 ([10]; 1.0 g l^-1 5-HMF, fermentation): no detrimental effect | ethanol production and growth of EMFR9 ([10]; 2.5 g 5-HMF l^-1, fermentation): slowed | time to completion of ethanol production and growth of EMFR9 ([10]; 2.5 g 5-HMF l^-1, fermentation): 96 h | growth of LY180 [11]: completely inhibited
